ChEMBL document CHEMBL5584314, “Identification of an m6A Natural Inhibitor, Lobeline, That Reverses Lenvatinib Resistance in Hepatocellular Tumors” (J Nat Prod, 2024)
Calls of active or inactive are those of the source. No cut-off for these calls is given here.

Columns and labels:
[1] = biological target: N6-adenosine-methyltransferase catalytic subunit (Homo sapiens) (UniProt Q86U44); test: Inhibition of METTL3 in human Lenvatinib-resistant Huh7/Len cells assessed as effect on IFIT2 mRNA expression level at 2 uM incubated for 72 hrs by RT-PCR analysis; type: cell-based
Chain of N6-adenosine-methyltransferase catalytic subunit (Homo sapiens) (Q86U44 whole entry): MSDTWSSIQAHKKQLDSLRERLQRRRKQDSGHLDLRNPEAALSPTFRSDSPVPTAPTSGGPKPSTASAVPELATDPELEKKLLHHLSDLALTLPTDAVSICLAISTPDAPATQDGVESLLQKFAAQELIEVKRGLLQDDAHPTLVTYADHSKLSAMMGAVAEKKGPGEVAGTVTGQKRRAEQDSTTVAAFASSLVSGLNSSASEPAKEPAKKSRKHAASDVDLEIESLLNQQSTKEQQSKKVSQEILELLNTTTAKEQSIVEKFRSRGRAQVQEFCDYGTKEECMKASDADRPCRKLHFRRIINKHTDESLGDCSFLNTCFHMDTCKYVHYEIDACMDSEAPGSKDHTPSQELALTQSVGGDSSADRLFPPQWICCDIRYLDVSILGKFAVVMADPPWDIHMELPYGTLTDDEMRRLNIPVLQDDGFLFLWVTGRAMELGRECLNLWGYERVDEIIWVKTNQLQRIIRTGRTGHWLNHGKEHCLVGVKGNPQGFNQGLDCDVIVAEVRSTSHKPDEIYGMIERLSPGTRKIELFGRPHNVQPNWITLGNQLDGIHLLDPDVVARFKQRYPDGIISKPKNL

[2] = test system: Lenvatinib-resistant Huh7/Len; test: Inhibition of cell migration in human Lenvatinib-resistant Huh7/Len cells at 5 uM incubated for 48 hrs in presence of lenvatinib by transwell assay relative to control; type: functional
[3] = biological target: N6-adenosine-methyltransferase catalytic subunit (Homo sapiens) (UniProt Q86U44); test: Inhibition of METTL3 in human Lenvatinib-resistant Huh7/Len cells assessed as effect on CRB3 mRNA expression level at 2 uM incubated for 72 hrs by RT-PCR analysis; type: cell-based
[4] = test system: Lenvatinib-resistant Huh7/Len; test: Anticancer activity against human Lenvatinib-resistant Huh7/Len cells assessed as increase in m6A modification in terminator region by MeRIP-m6A -sequencing analysis; type: functional, cell-based
[5] = biological target: N6-adenosine-methyltransferase catalytic subunit (Homo sapiens) (UniProt Q86U44); test: Inhibition of METTL3 in human Lenvatinib-resistant Huh7/Len cells assessed as effect on CTSL mRNA expression level at 2 uM incubated for 72 hrs by RT-PCR analysis; type: cell-based
[6] = test system: Lenvatinib-resistant Huh7/Len; test: Antitumor activity against human Lenvatinib-resistant Huh7/Len cells xenografted in BALB/c nude mouse assessed as inhibition of tumor volume at 1.5 mg/kg, ip cotreated with lenvatinib 5 times per week for 3 weeks relative to control; type: functional; details: 504 h
[7] = biological target: N6-adenosine-methyltransferase catalytic subunit (Homo sapiens) (UniProt Q86U44); test: Inhibition of METTL3 in human Lenvatinib-resistant Huh7/Len cells assessed as effect on LATS1 mRNA expression level at 2 uM incubated for 72 hrs by RT-PCR analysis; type: cell-based
[8] = test system: Lenvatinib-resistant Huh7/Len; test: Anticancer activity against human Lenvatinib-resistant Huh7/Len cells assessed as reduction in UBE3B mRNA expression at 2 uM by qPCR analysis; type: functional, cell-based
[9] = biological target: N6-adenosine-methyltransferase catalytic subunit (Homo sapiens) (UniProt Q86U44); test: Inhibition of METTL3 in human Lenvatinib-resistant Huh7/Len cells assessed as effect on IFFO1 mRNA expression level at 2 uM incubated for 72 hrs by RT-PCR analysis; type: cell-based
[10] = test system: Lenvatinib-resistant Huh7/Len; test: Antitumor activity against human Lenvatinib-resistant Huh7/Len cells xenografted in BALB/c nude mouse assessed as tumor growth inhibition at 1.5 mg/kg, ip cotreated with lenvatinib 5 times per week for 3 weeks; type: functional, organism-based
[11] = test system: Lenvatinib-resistant Huh7/Len; test: Antitumor activity against human Lenvatinib-resistant Huh7/Len cells xenografted in BALB/c nude mouse assessed as reduction in m6A RNA level at 1.5 mg/kg, ip 5 times per week for 3 weeks by Dot blot assay; type: functional, organism-based
Huh-7 = test: Effect on METTL3 protein expression in human Huh-7 cells at 2 uM incubated for 72 hrs by Western blot analysis; type: functional, cell-based
[12] = test system: Lenvatinib-resistant Huh7/Len; test: Anticancer activity against human Lenvatinib-resistant Huh7/Len cells assessed as increase in m6A modification in promoter region by MeRIP-m6A -sequencing analysis; type: functional, cell-based
[13] = biological target: N6-adenosine-methyltransferase catalytic subunit (Homo sapiens) (UniProt Q86U44); test: Inhibition of METTL3 in human Lenvatinib-resistant Huh7/Len cells assessed as effect on MMP3 mRNA expression level at 2 uM incubated for 72 hrs by RT-PCR analysis; type: cell-based
[14] = biological target: N6-adenosine-methyltransferase catalytic subunit (Homo sapiens) (UniProt Q86U44); test: Inhibition of METTL3 in human Huh-7 cells assessed as down regulation of m6A RNA level incubated for 72 hrs by Dot blot assay; type: cell-based; details: dose 5-10 µM
[15] = test system: Lenvatinib-resistant Huh7/Len; test: Antiproliferative activity against human Lenvatinib-resistant Huh7/Len cells assessed as inhibition of cell viability up to 40 uM after 72 hrs by CCK-8 assay; type: functional, cell-based
[16] = test system: Lenvatinib-resistant Hep3B/Len; test: Antiproliferative activity against human Lenvatinib-resistant Hep3B/Len cells assessed as inhibition of clone formation ability at 5 uM preincubated for 72 hrs and measured after 7 to 10 days in presence of lenvatinib by crystal violet staining based assay; type: functional, cell-based; details: time 10-13 day
[17] = test system: Lenvatinib-resistant Huh7/Len; test: Anticancer activity against human Lenvatinib-resistant Huh7/Len cells assessed as increase in GGA motif at m6A site by MeRIP-m6A -sequencing analysis; type: functional, cell-based
[18] = test system: Lenvatinib-resistant HCC/Len; test: Antitumor activity against human Lenvatinib-resistant HCC/Len cells xenografted in BALB/c nude mouse model of PDX assessed as reduction in Ki-67 protein expression in tumor tissue at 1.5 mg/kg, ip cotreated with lenvatinib 5 times per week for 3 weeks by immunohistochemistry analysis relative to control; type: functional, organism-based
[19] = test system: Lenvatinib-resistant HCC/Len; test: Antitumor activity against human Lenvatinib-resistant HCC/Len cells xenografted in BALB/c nude mouse model of PDX assessed as reduction in m6A expression in tumor tissue at 1.5 mg/kg, ip cotreated with lenvatinib 5 times per week for 3 weeks by immunohistochemistry analysis relative to control; type: functional, organism-based
[20] = biological target: N6-adenosine-methyltransferase catalytic subunit (Homo sapiens) (UniProt Q86U44); test: Inhibition of METTL3 in human Lenvatinib-resistant Huh7/Len cells assessed as effect on MMP13 mRNA expression level at 2 uM incubated for 72 hrs by RT-PCR analysis; type: cell-based
[21] = biological target: N6-adenosine-methyltransferase catalytic subunit (Homo sapiens) (UniProt Q86U44); test: Inhibition of METTL3 in human Lenvatinib-resistant Huh7/Len cells assessed as effect on ADAMTS9 mRNA expression level at 2 uM incubated for 72 hrs by RT-PCR analysis; type: cell-based
[22] = biological target: N6-adenosine-methyltransferase catalytic subunit (Homo sapiens) (UniProt Q86U44); test: Inhibition of METTL3 in human Lenvatinib-resistant Huh7/Len cells assessed as effect on NPCL1 mRNA expression level at 2 uM incubated for 72 hrs by RT-PCR analysis; type: cell-based
[23] = test system: Lenvatinib-resistant Huh7/Len; test: Anticancer activity against human Lenvatinib-resistant Huh7/Len cells assessed as increase in m6A modification in coding region by MeRIP-m6A -sequencing analysis; type: functional, cell-based
[24] = test system: Lenvatinib-resistant Huh7/Len; test: Antiproliferative activity against human Lenvatinib-resistant Huh7/Len cells assessed as inhibition of clone formation ability at 5 uM preincubated for 72 hrs and measured after 7 to 10 days by crystal violet staining based assay; type: functional, cell-based; details: time 10-13 day
[25] = test system: Lenvatinib-resistant HCC/Len; test: Antitumor activity against human Lenvatinib-resistant HCC/Len cells xenografted in BALB/c nude mouse model of PDX assessed as inhibition of tumor volume at 1.5 mg/kg, ip cotreated with lenvatinib 5 times per week for 3 weeks; type: functional; details: 504 h
[26] = test system: Lenvatinib-resistant Huh7/Len; test: Antiproliferative activity against human Lenvatinib-resistant Huh7/Len cells assessed as inhibition of clone formation ability at 5 uM preincubated for 72 hrs and measured after 7 to 10 days in presence of lenvatinib by crystal violet staining based assay; type: functional, cell-based; details: time 10-13 day
[27] = test system: Lenvatinib-resistant Huh7/Len; test: Induction of apoptosis in human Lenvatinib-resistant Huh7/Len cells xenografted in BALB/c nude mouse assessed as apoptotic cells in tumor tissue at 1.5 mg/kg, ip cotreated with lenvatinib 5 times per week for 3 weeks by TUNEL assay; type: functional, organism-based
[28] = test system: Lenvatinib-resistant HCC/Len; test: Antitumor activity against human Lenvatinib-resistant HCC/Len cells xenografted in BALB/c nude mouse model of PDX assessed as tumor growth inhibition at 1.5 mg/kg, ip cotreated with lenvatinib 5 times per week for 3 weeks; type: functional, organism-based
[29] = test system: Lenvatinib-resistant Hep3B/Len; test: Inhibition of cell migration in human Lenvatinib-resistant Hep3B/Len cells at 5 uM incubated for 48 hrs in presence of lenvatinib by transwell assay relative to control; type: functional
[30] = biological target: N6-adenosine-methyltransferase catalytic subunit (Homo sapiens) (UniProt Q86U44); test: Inhibition of METTL3 in human Lenvatinib-resistant Huh7/Len cells assessed as effect on UCK2 mRNA expression level at 2 uM incubated for 72 hrs by RT-PCR analysis; type: cell-based
[31] = test system: Lenvatinib-resistant Hep3B/Len; test: Inhibition of cell migration in human Lenvatinib-resistant Hep3B/Len cells at 5 uM incubated for 48 hrs by transwell assay; type: functional, cell-based

**Q.** Which inhibition [1] does the source give for CN1[C@@H](CC(=O)c2ccccc2)CCC[C@H]1C[C@H](O)c1ccccc1 [LOBELINE] here?
**A.** Its inhibition is “Active”.

**Q.** What about the inhibition at 5 µM [2] of the same molecule?
**A.** Its inhibition at 5 µM is 42%.

**Q.** What about the inhibition [3] of the same molecule?
**A.** Its inhibition is “Active”.

**Q.** What about the Activity [4] of the same molecule?
**A.** The Activity was “Active”.

**Q.** What about the inhibition [5] of the same molecule?
**A.** Its inhibition is “Active”.

**Q.** And the inhibition in vivo at 1.5 mg/kg [6]?
**A.** Its inhibition in vivo at 1.5 mg/kg is 68%.

**Q.** And the inhibition [7]?
**A.** The inhibition was “Active”.

**Q.** What about the Activity [8] of the same molecule?
**A.** The Activity was “Active”.

**Q.** What about the inhibition [9] of the same molecule?
**A.** Its inhibition is “Active”.

**Q.** And the TGI [10]?
**A.** Its TGI is “Active”.

**Q.** What about the Activity [11] of the same molecule?
**A.** The Activity was “inactive”.

**Q.** And the Activity (Huh-7)?
**A.** Its Activity is “inactive”.

**Q.** What about the Activity [12] of the same molecule?
**A.** The Activity was “Active”.

**Q.** What about the inhibition [13] of the same molecule?
**A.** Its inhibition is “Active”.

**Q.** What about the inhibition [14] of the same molecule?
**A.** Its inhibition is “Dose-Dependent Effect”.

**Q.** And the inhibition [15]?
**A.** The inhibition was “Active”.

**Q.** What about the inhibition [16] of the same molecule?
**A.** Its inhibition is “inactive”.

**Q.** And the Activity [17]?
**A.** Its Activity is “Active”.

**Q.** And the Activity [18]?
**A.** Its Activity is “Active”.

**Q.** And the Activity [19]?
**A.** Its Activity is “Active”.

**Q.** And the inhibition [20]?
**A.** The inhibition was “Active”.

**Q.** What about the inhibition [21] of the same molecule?
**A.** The inhibition was “Active”.

**Q.** And the inhibition [22]?
**A.** The inhibition was “Active”.

**Q.** What about the Activity [23] of the same molecule?
**A.** The Activity was “Active”.

**Q.** What about the inhibition [24] of the same molecule?
**A.** Its inhibition is “inactive”.

**Q.** What about the inhibition in vivo at 1.5 mg/kg [25] of the same molecule?
**A.** Its inhibition in vivo at 1.5 mg/kg is 60%.

**Q.** What about the inhibition [26] of the same molecule?
**A.** Its inhibition is “inactive”.

**Q.** What about the Activity [27] of the same molecule?
**A.** Its Activity is “Active”.

**Q.** What about the TGI [28] of the same molecule?
**A.** Its TGI is “Active”.

**Q.** What about the inhibition at 5 µM [29] of the same molecule?
**A.** The inhibition at 5 µM was 42%.

**Q.** What about the inhibition [30] of the same molecule?
**A.** Its inhibition is “Active”.

**Q.** And the inhibition [31]?
**A.** Its inhibition is “inactive”.
